# Experimental data: ChEMBL document CHEMBL1201862, “PubChem BioAssay data set” (2004)
#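 96-well plates; 48 h exposure; 5 concentrations. Endpoints by linear interpolation between flanking doses. Not reached: highest tested concentration assigned. GI50 marks 50% less growth.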 Activity calls are given as the source filed them. No stated cut-off is given here; in the data, active = GI50 up to about 1.1 µM and inactive = higher.
# What was measured:
# Experiment in all cases: NCI tumour cell line growth inhibition, 48 h
# UACC-62 = test system: UACC-62
# K562 = test system: K562
# U-251 = test system: U-251
# Malme-3M = test system: Malme-3M
# SNB-19 = test system: SNB-19
# RPMI-8226 = test system: RPMI-8226
# NCI-H23 = test system: NCI-H23
# ACHN = test system: ACHN
# UACC-257 = test system: UACC-257
# CCRF-CEM = test system: CCRF-CEM
# TK-10 = test system: TK-10
# HOP-92 = test system: HOP-92
# HCC 2998 = test system: HCC 2998
# HCT-15 = test system: HCT-15
# RXF 393 = test system: RXF 393
# NCI-H522 = test system: NCI-H522
# NCI/ADR-RES = test system: NCI/ADR-RES
# NCI-H226 = test system: NCI-H226
# CAKI-1 = test system: CAKI-1
# SNB-75 = test system: SNB-75
SMILES,GI50 (UACC-62),GI50 (K562),GI50 (U-251),GI50 (Malme-3M),GI50 (SNB-19),GI50 (RPMI-8226),GI50 (NCI-H23),GI50 (ACHN),GI50 (UACC-257),GI50 (CCRF-CEM),GI50 (TK-10),GI50 (HOP-92),GI50 (HCC 2998),GI50 (HCT-15) [µM],GI50 (RXF 393),GI50 (NCI-H522),GI50 (NCI/ADR-RES),GI50 (NCI-H226),GI50 (CAKI-1),GI50 (SNB-75)
COc1ccc(O)cc1C=O,32.7 µM (inactive),33.9 µM (inactive),> 100 µM (inactive),46.3 µM (inactive),> 100 µM (inactive),60.1 µM (inactive),> 100 µM (inactive),> 100 µM (inactive),48.1 µM (inactive),44 µM (inactive),> 100 µM (inactive),> 100 µM (inactive),> 100 µM (inactive),37.6,> 100 µM (inactive),,,,,
CC(C)=NN/C(=N\c1ccc(Cl)cc1)NS(=O)(=O)c1cc(Cl)c(Oc2ccc([N+](=O)[O-])cc2Cl)c(Cl)c1,> 100 µM (inactive),53.6 µM (inactive),> 100 µM (inactive),70 µM (inactive),> 100 µM (inactive),29.6 µM (inactive),> 100 µM (inactive),,> 100 µM (inactive),78.5 µM (inactive),> 100 µM (inactive),51.8 µM (inactive),,> 100,,91 µM (inactive),> 100 µM (inactive),> 100 µM (inactive),> 100 µM (inactive),
Cc1c(-c2nnc(-c3ccc(Cl)cc3)o2)c(=O)n(-c2ccccc2)n1C,> 100 µM (inactive),> 100 µM (inactive),> 100 µM (inactive),> 100 µM (inactive),> 100 µM (inactive),> 100 µM (inactive),> 100 µM (inactive),> 100 µM (inactive),> 100 µM (inactive),> 100 µM (inactive),> 100 µM (inactive),> 100 µM (inactive),> 100 µM (inactive),> 100,> 100 µM (inactive),> 100 µM (inactive),,> 100 µM (inactive),,> 100 µM (inactive)
COCCCNC(=O)C1C(=O)N(CCCOC)C(=O)/C1=N\N (stereo unspecified),> 100 µM (inactive),> 100 µM (inactive),> 100 µM (inactive),> 100 µM (inactive),> 100 µM (inactive),> 100 µM (inactive),> 100 µM (inactive),> 100 µM (inactive),> 100 µM (inactive),> 100 µM (inactive),> 100 µM (inactive),> 100 µM (inactive),> 100 µM (inactive),> 100,> 100 µM (inactive),> 100 µM (inactive),,,,38.3 µM (inactive)
